The text below walks through data of PMC6385087, “New Multitarget Hybrids Bearing Tacrine and Phenylbenzothiazole Motifs as Potential Drug Candidates for Alzheimer’s Disease” (Molecules, 2019).

One data set concerns the target T1, Aβ1–42 self-aggregation (Homo sapiens, UniProt P05067).
T1 construct: Commercially available Aβ1-42 peptide was obtained from Aldrich; purchased Aldrich
Nature of the data set: Aβ1–42 self-aggregation inhibition, thioflavin T fluorescence assay. The data set is classed as biochemical. Particulars: for inhibition at 40 µM: read-out: Inhibition of Aβ-self-aggregation (%). Here is the method:
[…]. Since the compounds of this series presented some solubility problems in methanol, the assays were performed with ligands at concentrations of 40 µM, i.e., half of the concentration usually used (80 µM) in these assays. […]. […] So, it appears that introduction of a chloro substituent in TAC and/or a hydroxyl group in the carbon linker are not well suited for the interaction with β-sheet secondary structure of Aβ aggregates. […].
Commercially available Aβ1-42 peptide was obtained from Aldrich and stored at −20 °C. It was treated with 1,1,1,3,3,3-hexafluoropropan-2-ol (HFIP) to avoid self-aggregation and reserved. HFIP pre-treated Aβ1–42 samples were re-dissolved in CH3CN/Na2CO3 (300 µM)/NaOH (250 µM) (48.3:48.3:4.3, v/v/v) solvent mixture in order to have a stable stock solution; this solution (500 µM) was further diluted in phosphate buffer (0.215 M, pH 8.0) to obtain 40 µM solution. The ligand, which was previously dissolved in methanol, was further diluted in phosphate buffer to a final concentration of 40 µM. Aβ1–42 aggregation was determined by measuring the fluorescence emission of Thioflavin T dye, with a Cary Eclipse Varian fluorimeter (Molecular Devices, San José, CA, USA).
After incubation for 24 h at 37 °C, without stirring, the samples were added to a 96-well plate (BD Falcon) with 180 µL of 5 µM ThT in 50 mM glycine-NaOH (pH 8.5) buffer. Blank samples were prepared for each concentration in a similar way, devoid of peptide. As for the control, a sample of the peptide was incubated under identical conditions but without the inhibitor. After 5-min incubation with the dye, the ThT fluorescence was measured at the following wavelengths: 446 nm (excitation) and 486 nm (emission). The percent inhibition of the self-induced aggregation due to the presence of the test compound was calculated by Equation (2), in which IFi and IF0 corresponded to the fluorescence intensities, in the presence and the absence of the test compound, minus the fluorescence intensities due to the respective blanks. I% = 100 − (IFi/IF0 × 100)(2)
The reported values were obtained as the mean ± S.E.M. of two different experiments.

The target of another data set is T2, AChE from electric eel (Electrophorus electricus, UniProt O42275).
T2 construct: commercially available enzyme AChE 500 U (extracted from electrophorus electricus); purchased type VI-S; host or cells: extracted from electric eel
T2 sequence (O42275 24-633): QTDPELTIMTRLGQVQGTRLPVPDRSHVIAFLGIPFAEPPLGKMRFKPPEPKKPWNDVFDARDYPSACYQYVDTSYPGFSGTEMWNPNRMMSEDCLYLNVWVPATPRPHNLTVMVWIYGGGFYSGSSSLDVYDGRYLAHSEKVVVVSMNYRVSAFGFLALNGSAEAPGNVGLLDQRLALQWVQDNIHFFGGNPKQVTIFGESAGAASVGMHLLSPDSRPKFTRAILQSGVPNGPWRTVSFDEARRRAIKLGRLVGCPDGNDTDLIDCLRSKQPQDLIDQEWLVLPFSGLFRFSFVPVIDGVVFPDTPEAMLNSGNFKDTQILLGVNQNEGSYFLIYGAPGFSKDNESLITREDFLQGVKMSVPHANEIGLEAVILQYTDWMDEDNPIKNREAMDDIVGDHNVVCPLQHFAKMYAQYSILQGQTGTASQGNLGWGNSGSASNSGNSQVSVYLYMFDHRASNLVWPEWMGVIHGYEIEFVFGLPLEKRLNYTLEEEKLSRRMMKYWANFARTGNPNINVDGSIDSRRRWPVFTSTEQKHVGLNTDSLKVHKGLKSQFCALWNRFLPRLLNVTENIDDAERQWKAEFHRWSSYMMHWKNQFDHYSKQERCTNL
Nature of the data set: biochemical. As to conditions: means of two experiments, read-out: Inhibition of AChE (IC50). Here is the method: The analytical grade reagents were purchased from Sigma-Aldrich (St. Louis, MO, USA) and Acros (Thermo Fisher Scientific, Geel, Belgium) and were used without any further purification. The organic solvents were dried and distilled according to standard methods described in literature. […] The Proton and Carbon-13 NMR were recorded either on Bruker AVANCE III-300 (300 MHz and 75.5 MHz) or Bruker AVANCE III-400 (400 MHz and 100.5 MHz) NMR spectrometers (Billerica, MA, USA) at 25 °C using peaks of solvents as internal standard. The chemical shift values of protons or carbons were measured on a δ scale and the coupling constant values (J) were determined in Hertz. In the NMR representation, abbreviations are mentioned as: singlet represented by s, doublet represented by d, triplet represented by t, multiplet represented by m, double doublet represented by dd, and broad singlet represented by brs. The Leica Galen III hot stage apparatus (Leica Microsystems, Wetzlar, Germany) was used for measuring the melting points of compounds. […] The AChE inhibitory activity was measured in a 1 cm path length quartz cell through a Perkin Elmer Lambda 35 spectrophotometer equipped with a temperature programmer PTP1+1 Peltier System (T = 25.0 ± 0.1 °C) (Waltham, MA, USA). Electrospray ionization-mass (ESI-MS) measurements were carried out on a LCQ Fleet mass spectrometer (Thermo Scientific, S. Jose, CA, USA) operated in the ESI positive and negative ion modes.
Modified Ellman’s method was used as described previously for the determination of AChE activity. The AChE stock solution was prepared by dissolving commercially available enzyme AChE 500 U (extracted from electrophorus electricus) in 10 mL of TRIS buffer (50 mM, pH 8). HEPES buffer was used for the dilution of the enzyme to give the final AChE concentration. The assay solution consisted of 374 μL of 4-(2-hydroxyethyl)-1-piperazineethanesulfonic acid (Hepes) buffer (50 mM, pH 8.0), 476 μL of 3 mM bis(3-carboxy-4-nitrophenyl)disulfide (DTNB), 25 μL of AChE (type VI-S, from electric eel) stock solution, a variable volume (10–50 μL) of the compound’s stock solution (1 mg/mL of MeOH), and the necessary amount of methanol to attain the same volume of sample mixture (0.925 mL) in a 1 mL cuvette. Samples were left to react for 15 min and then the reaction was monitored at wavelength of 405 nm for 5 min, after adding 75 μL of 16 mM acetylthiocholine iodide (AChI) solution. Assays were run with a blank containing all the components except AChE, which was replaced by HEPES buffer. The velocities of the reaction were calculated as well as the enzyme activity. A control reaction was carried out using the sample solvent (methanol) in the absence of any tested compound, and it was considered as 100% activity. […] The inhibition curves were obtained by plotting the percentage of enzymatic inhibition versus inhibitor concentration and a calibration curve was obtained from which the linear regression parameters were calculated.

A further data set deals with SH-SY5Y cells. Description: Dose-response screening for non-toxic concentration, MTT reduction. The data set is classed as cell-based. Particulars: dose-response screening from 0.2 μM to 5 μM, 25 h. Here is the method:
The neuroprotective effect of TAC-PhBTA conjugates was evaluated using SH-SY5Y cells treated with Aβ1–42 peptides or ascorbate/iron. For each compound, a dose-response curve was performed to select a non-toxic concentration in order to analyze its neuroprotective effect (Figure 3).
SH-SY5Y human neuroblastoma cell line (ATCC-CRL-2266) grown in Dulbecco’s modified Eagle’s medium (DMEM) obtained from Gibco-Invitrogen (Life Technologies Ltd., Liverpool, UK) with 10% heat inactivated fetal calf serum, containing 50 U/mL penicillin, and 50 μg/mL streptomycin, under a humidified atmosphere of 95% air-5% CO2 at 37 °C. Cells were plated at 0.12 × 10^6 cells/mL for cell viability assay. […]. As a result we selected a 2.5 μM final concentration for compound 16; 0.5 μM final concentration for compound 17; 0.2 μM final concentration for compounds 14 and 15; and a 1 μM final concentration for compounds 19 and 18. […] The compounds were added to the cell media 1 h before the incubation with Aβ1–42 or ferrous sulfate/L-ascorbic acid. Aβ1–42 or ferrous sulfate/L-ascorbic acid where incubated alone or with the compound for an additional 24 h. Aβ1–42 was prepared as 276.9 μM stock in sterile water and added to the medium at 1 μM final concentration. Ferrous sulfate was freshly prepared as 0.36 M stock in water and added to the medium at 500 μM final concentration. L-Ascorbic Acid was freshly prepared as 80 mM stock in water and added to the medium at 5 mM final concentration. Aβ1–42 was purchased from Bachem (Torrance, CA, USA) and ferrous sulfate and L-ascorbic acid from Sigma Chemical Co (St. Louis, MO, USA).
Cell viability was determined by a MTT (3-(4,5-dimethylthiazol-2-yl)-2,5-diphenyltetrazolium bromide) reduction test. In viable cells, the enzyme succinate dehydrogenase metabolizes MTT into formazan that absorbs light at 570 nm. Following the cell treatment protocol the medium was aspirated and 0.5 mL MTT (0.5 mg/mL) was added to each well. The plate was then incubated at 37 °C for 1 h 30 min protected from light. At the end of the incubation period the formazan precipitates were solubilized with 0.5 mL of acidic isopropanol (0.04 M HCl/isopropanol). The absorbance was measured at 570 nm. Cell reduction ability was expressed as a percentage of untreated control cells.

The mark [1] stands for this setting: self-mediated Aβ42 aggregation, ThT fluorescence, CL = 40 μM, means of two experiments.

Each structure is given as a SMILES string. Like-named read-outs stand apart in the source and are kept apart here.

T1 sequence (P05067 672-713 limits assumed): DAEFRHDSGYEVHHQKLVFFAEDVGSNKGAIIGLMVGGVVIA

One may read the inhibition as the share of the control response that was lost under treatment. As for `Nc1c2c(nc3ccccc13)CCCC2` [TAC, tacrine], the inhibition at 80 µM on Aβ1–42 self-aggregation (read-out: Inhibition of Aβ self-aggregation (%)) amounted to 11%. For the same compound, the inhibition at 40 µM at Aβ1–42 self-aggregation came to 11%.

As a reminder, the IC50 is the concentration that gives 50% inhibition. In the case of `COc1cc(-c2nc3ccccc3s2)ccc1OCC(=O)NCCNc1c2c(nc3ccccc13)CCCC2` [compound 14, 2-(4-(Benzo[d]thiazol-2-yl)-2-methoxyphenoxy)-N-(2-((1,2,3,4-tetrahydroacridin-9-yl)amino)ethyl)acetamide], the IC50 on AChE from electric eel stood at 110 nM. Further, the inhibition at 40 µM on Aβ1–42 self-aggregation (setting [1]) was 44.6%. In addition, the “Highest non-toxic concentration selected” value in the data set on SH-SY5Y cells amounted to 0.2 µM.

For `COc1cc(-c2nc3ccccc3s2)ccc1OCC(=O)NCCCNc1c2c(nc3cc(Cl)ccc13)CCCC2` [compound 17, 2-(4-(Benzo[d]thiazol-2-yl)-2-methoxyphenoxy)-N-(3-((6-chloro-1,2,3,4-tetrahydroacridin-9-yl)amino)propyl)acetamide], the concentration for half-maximal inhibition (IC50) at AChE from electric eel stood at 130 nM. Also, the inhibition at 40 µM at Aβ1–42 self-aggregation (setting [1]) turned out to be 32.5%. Besides, the “Highest non-toxic concentration selected” value in the data set with SH-SY5Y cells was 0.5 µM.

Consider `COc1cc(-c2nc3ccccc3s2)ccc1OCC(=O)NCC(O)CNc1c2c(nc3ccccc13)CCCC2` (stereo not drawn) [compound 18, 2-(4-(Benzo[d]thiazol-2-yl)-2-methoxyphenoxy)-N-(2-hydroxy-3-((1,2,3,4-tetrahydroacridin-9-yl)amino)propyl)acetamide], for which the IC50 on AChE from electric eel amounted to 270 nM. At Aβ1–42 self-aggregation (self-mediated Aβ42 aggregation, ThT fluorescence, CL = 40 μM, means of two experiments, 40 µM), the “Inhibition of Aβ-self-aggregation (%)” value was 31.1%. The inhibition at 40 µM on Aβ1–42 self-aggregation (setting [1]) was around 31%. Moreover, the “Highest non-toxic concentration selected” value in the data set on SH-SY5Y cells came to 1 µM.
